Measured values taken from EP3679037B1, “NEW 5-AMINOTETRAZOLE DERIVATIVES WITH ANTIBACTERIAL AND ANTIFUNGAL ACTIVITY” (Warszawski Uniwersytet Medyczny, priority 2017, dated 2019).
In brackets after ≈: the same amount, converted by molar mass. Read-outs that look alike come from different tables or passages of the source.

Key:
[1] = test system: non-cancerous, immortalized human keratinocyte (HaCaT) cell line; test: Cytotoxicity (inhibition of cell proliferation), HaCaT cell line; type: cell-based
Experimental: (§1) The obtained compounds were tested for potential cytotoxicity. They are not cytotoxic to the non-cancerous, immortalized human keratinocyte (HaCaT) cell line and the lung cancer cell line (A549).

[2] = test system: lung cancer cell line (A549); test: Cytotoxicity (inhibition of cell proliferation), A549 cell line; type: cell-based; settings: Homo sapiens
Experimental: as §1

[3] = target: S. aureus DNA Gyrase (Staphylococcus aureus, UniProt P0A0K8+P20831); test: Inhibition of bacterial DNA gyrase; type: biochemical; settings: dose of inhibitor suppressing 50% activity
Chain of S. aureus DNA Gyrase (P20831 whole entry): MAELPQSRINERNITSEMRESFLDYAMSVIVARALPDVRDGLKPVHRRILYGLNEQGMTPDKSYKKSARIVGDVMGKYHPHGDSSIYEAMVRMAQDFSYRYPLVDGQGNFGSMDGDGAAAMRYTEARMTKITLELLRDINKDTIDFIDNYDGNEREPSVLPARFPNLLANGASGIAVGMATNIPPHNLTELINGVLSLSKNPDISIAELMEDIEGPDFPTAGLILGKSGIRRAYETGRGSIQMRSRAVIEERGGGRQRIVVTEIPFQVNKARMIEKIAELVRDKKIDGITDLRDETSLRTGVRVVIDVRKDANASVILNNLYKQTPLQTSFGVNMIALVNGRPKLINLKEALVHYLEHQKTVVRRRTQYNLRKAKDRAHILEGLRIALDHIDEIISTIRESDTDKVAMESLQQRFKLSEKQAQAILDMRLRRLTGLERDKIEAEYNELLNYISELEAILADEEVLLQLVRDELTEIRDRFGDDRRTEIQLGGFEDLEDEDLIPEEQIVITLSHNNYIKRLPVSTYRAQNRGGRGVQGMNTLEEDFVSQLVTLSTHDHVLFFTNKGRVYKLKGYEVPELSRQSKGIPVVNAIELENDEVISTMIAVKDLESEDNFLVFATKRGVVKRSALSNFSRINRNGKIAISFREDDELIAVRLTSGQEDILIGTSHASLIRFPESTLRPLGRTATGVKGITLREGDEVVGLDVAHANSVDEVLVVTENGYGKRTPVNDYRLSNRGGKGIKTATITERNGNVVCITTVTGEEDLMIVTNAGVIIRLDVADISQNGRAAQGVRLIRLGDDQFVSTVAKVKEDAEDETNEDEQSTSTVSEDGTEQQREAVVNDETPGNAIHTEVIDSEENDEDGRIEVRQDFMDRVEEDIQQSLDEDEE
Chain of S. aureus DNA Gyrase (P0A0K8 whole entry): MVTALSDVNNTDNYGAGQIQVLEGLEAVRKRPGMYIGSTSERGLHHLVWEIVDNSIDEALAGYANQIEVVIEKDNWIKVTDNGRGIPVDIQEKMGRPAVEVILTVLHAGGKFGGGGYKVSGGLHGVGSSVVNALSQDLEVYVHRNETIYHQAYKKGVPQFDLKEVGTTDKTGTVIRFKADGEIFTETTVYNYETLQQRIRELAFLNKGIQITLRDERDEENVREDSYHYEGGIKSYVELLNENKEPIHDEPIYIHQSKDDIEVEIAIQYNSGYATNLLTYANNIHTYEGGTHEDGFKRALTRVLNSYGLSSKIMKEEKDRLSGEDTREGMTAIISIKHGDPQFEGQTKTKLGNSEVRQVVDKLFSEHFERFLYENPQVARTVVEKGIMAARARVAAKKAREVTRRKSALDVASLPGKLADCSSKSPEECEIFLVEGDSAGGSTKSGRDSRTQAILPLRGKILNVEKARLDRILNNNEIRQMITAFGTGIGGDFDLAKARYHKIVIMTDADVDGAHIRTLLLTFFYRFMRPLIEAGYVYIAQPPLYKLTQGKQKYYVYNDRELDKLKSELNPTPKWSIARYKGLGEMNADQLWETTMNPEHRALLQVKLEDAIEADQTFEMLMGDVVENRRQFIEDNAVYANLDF
Description: (§2) The mechanism of action was verified for the obtained compounds by inhibiting bacterial topoisomerases (Topoisomerase IV and Gyrase).

[4] = target: S. aureus Topoisomerase IV (Staphylococcus aureus, UniProt P0C1S7+P0C1U9); test: Inhibition of bacterial topoisomerase IV; type: biochemical; settings: dose of inhibitor suppressing 50% activity
Chain of S. aureus Topoisomerase IV (P0C1S7 whole entry): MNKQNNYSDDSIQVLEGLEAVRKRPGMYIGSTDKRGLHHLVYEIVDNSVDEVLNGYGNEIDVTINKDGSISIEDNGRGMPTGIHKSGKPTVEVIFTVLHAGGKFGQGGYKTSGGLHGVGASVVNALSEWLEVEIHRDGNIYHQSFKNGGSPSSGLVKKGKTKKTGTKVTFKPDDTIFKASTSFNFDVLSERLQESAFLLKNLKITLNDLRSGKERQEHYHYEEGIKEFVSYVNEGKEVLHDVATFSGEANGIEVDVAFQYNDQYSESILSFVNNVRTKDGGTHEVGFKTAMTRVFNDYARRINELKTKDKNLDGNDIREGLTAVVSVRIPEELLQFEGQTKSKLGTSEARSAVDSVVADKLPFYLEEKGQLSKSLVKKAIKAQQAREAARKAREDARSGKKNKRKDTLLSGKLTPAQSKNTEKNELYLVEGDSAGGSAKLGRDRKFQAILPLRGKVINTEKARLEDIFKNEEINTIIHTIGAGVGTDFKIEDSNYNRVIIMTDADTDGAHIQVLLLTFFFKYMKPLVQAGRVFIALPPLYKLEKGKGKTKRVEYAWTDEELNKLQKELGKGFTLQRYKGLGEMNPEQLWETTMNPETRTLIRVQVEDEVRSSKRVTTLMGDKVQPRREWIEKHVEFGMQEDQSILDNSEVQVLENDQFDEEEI
Chain of S. aureus Topoisomerase IV (P0C1U9 whole entry): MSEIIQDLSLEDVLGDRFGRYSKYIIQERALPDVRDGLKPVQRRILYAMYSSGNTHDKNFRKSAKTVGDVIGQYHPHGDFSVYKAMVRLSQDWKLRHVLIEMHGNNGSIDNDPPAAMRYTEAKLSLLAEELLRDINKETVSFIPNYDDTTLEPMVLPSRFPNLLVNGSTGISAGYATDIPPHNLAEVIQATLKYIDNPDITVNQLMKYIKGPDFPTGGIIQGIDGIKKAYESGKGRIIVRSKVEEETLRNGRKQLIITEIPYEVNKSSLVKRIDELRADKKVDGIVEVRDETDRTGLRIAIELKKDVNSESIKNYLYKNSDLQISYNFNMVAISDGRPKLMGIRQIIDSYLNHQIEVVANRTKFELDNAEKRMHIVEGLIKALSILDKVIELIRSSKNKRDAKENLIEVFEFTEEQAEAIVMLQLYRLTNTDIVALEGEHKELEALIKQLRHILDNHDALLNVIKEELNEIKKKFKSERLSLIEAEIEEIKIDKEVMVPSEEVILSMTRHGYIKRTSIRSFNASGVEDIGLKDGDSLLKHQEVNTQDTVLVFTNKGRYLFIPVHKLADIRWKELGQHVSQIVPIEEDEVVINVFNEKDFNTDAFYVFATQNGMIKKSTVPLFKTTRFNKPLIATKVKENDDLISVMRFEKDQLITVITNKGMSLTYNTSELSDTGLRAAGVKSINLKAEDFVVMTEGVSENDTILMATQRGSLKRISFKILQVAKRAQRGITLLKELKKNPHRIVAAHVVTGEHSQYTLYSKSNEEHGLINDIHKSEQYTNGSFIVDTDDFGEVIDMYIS
Description: as §2

[5] = concentration at which cell proliferation is inhibited by 50% in relation to the control, read-out: IC50

SMILES | IC50 [1] [µM] | IC50 [2] [µM] | IC50 [1, 5] [µM] | IC50 [2, 5] [µM] | IC50 S. aureus DNA Gyrase [3] [µg/mL] | IC50 [4] [µM] | IC50 [3] [µM]
Brc1ccc(-n2nnnc2Nn2cnnc2)cc1 [Compound 5, 1-(4-bromophenyl)-N-(4H-1,2.4-triazol-4-yl)-1H-tetrazole-5-amine] | 65 | 62 |  |  |  |  | 
Fc1ccc(-n2nnnc2Nc2nccs2)cc1Cl [Compound 2, N-(1-(3-chloro-4-fluorophenyl)-1H-tetrazol-5-yl)thiazol-2-amine] |  |  | 60 | 60 |  |  | 
Cc1ccc(-n2nnnc2NCc2ccco2)cc1Cl [Compound 10, 1-(3-chloro-4-methylphenyl)-N-(furan-2-ylmethyl)-1H-tetrazole-5-amine] |  |  | 80 | 78 | 22.8 ± 0.4 (≈ 78.7 µM) | 41.1 | 
FC(F)(F)c1ccc(-n2nnnc2Nc2nccs2)cc1 [Compound 3, N-(1-(4-(trifluoromethyl)phenyl)-1H-tetrazol-5-yl)thiazole-2-amine] |  |  | 80 | 76 |  |  | 
Fc1ccc(-n2nnnc2Nn2cnnc2)cc1Cl [Compound 8, 1-(3-chloro-4-fluorophenyl)-N-(4H-1,2.4-triazol-4-yl)-1H-tetrazole-5-amine] | 62 | 60 |  |  |  |  | 
Fc1ccc(-n2nnnc2Nn2cnnc2)cc1 [Compound 9, 1-(4-fluorophenyl)-N-(4H-1,2.4-triazol-4-yl)-1H-tetrazole-5-amine] | 84 | 80 |  |  |  |  | 
Clc1ccc(-n2nnnc2NCc2ccco2)cc1Cl [Compound 11, 1-(3,4-dichlorophenyl)-N-(furan-2-ylmethyl)-1H-tetrazole-5-amine] |  |  | 84 | 80 |  | 8.38 | 2.9
